From patent publication US11624068B2, “Compositions and methods for improving immune system function” (Tufts Medical Center, Inc., priority 2016, dated 2023)

How the values were obtained:
Format in all cases: cell-based, human
CD4 T cells = assay: IL2 ELISA, T cells repeatedly stimulated with anti-CD3/CD28 beads (in vitro exhaustion model); conditions: T cells continuously with Ezh2 inhibitor (10 nmol), after the 4th stimulation
Protocol: (§1) In experiments using p38MAPK, JNK, MEK1 and Ezh2 inhibitors, cells were grown in the continued presence of inhibitors. After each wash and activation step, cells were treated with a fresh batch of inhibitors. The following inhibitors were used: MAPKp38-SB202190 (10 μmol/ml) (Sigma, cat. S7067), JNK-SP600125 (10 μmol/ml) (Sigma, cat. S5567), MEK1-PD98059 (5 μmol/ml) (Calbiochem, cat. 513001), MEK1/2-inhibitor III (5 μmol/ml) (Calbiochem, cat. 444966) and Ezh2-[…] (10 nmol) (Millipore, cat. 505052). DMSO was used as a mock treatment. The specificity of p38MAPK, JNK and MEK1 inhibitors to block the downstream kinases, phospho-ATF2, phospho-cJun and phospho-ERK, respectively, was confirmed by westerns (FIG. 18A).
(§2) ELISA assays were performed using human IL2 and IFNγ Ready-SET-Go kits (eBioscience). Three replicates were included for each experimental set and each experiment was repeated three or more times. ELISA was performed on the supernatant saved from each stimulation step. CD4+ or CD8+ T cells were stimulated with anti-CD3/CD28 beads and cultured for 48 hours, after which cells were spun down and supernatants carefully removed and saved at −20° C. The same procedure was followed for the rest of the stimulation steps.
Human T cell isolation and culture in vitro. […] 48 hours after the first stimulation, cells were counted and washed, and beads were removed using a magnet. […]

T cells = assay: IFNγ ELISA, repeatedly stimulated T cells; conditions: FIG. 16
Protocol: as §2
Human T cell isolation and culture in vitro. CD4+ and CD8+ T cells were enriched from peripheral blood mononuclear cells obtained from healthy donors. Leukoreduction filters from Boston Children's Hospital that were processed using histopaque (Sigma) cushions to separate PBMCs were used. Human CD8+ and CD4+ cells were enriched using naïve CD8 and CD4 T cell enrichment cocktail (BD Biosciences, cat. 51-900481 and 9002314, respectively). […] Cells were stimulated the same day with T-Activator CD3/CD28 dynabeads (Life Technologies, cat. 11131D) following the manufacturer's recommendations. 48 hours after the first stimulation, cells were counted and washed, and beads were removed using a magnet. This was followed by a second, third and fourth round of stimulations with fresh batches of CD3/CD28 beads. […]

[1] = system: H3-K27 trimethylation of the IL2 promoter; assay: ChIP with anti-H3K27me3 antibody and qPCR for IL2 promoter; conditions: repeatedly stimulated CD4 T cells; FIG. 2E
Protocol: Chromatin immunoprecipitation assay. The ChIP assay was performed using a ChIP-IT high sensitivity kit (Active Motif, cat. 53040), following the manufacturer's recommended protocol. Human CD4+ T cells were repeatedly activated with CD3/CD28 beads in the continued presence of Ezh2 inhibitor or transfected with YY1 shRNA and a control after 2nd stimulation. Approximately 15 μg of chromatin was used in each reaction with an antibody that specifically recognizes H3K27me3 (Active Motif, cat. 39155). Fold enrichment was calculated relative to IgG and input.

CEA-CAR T cells = assay: IL2 ELISA in MIPCEA/CAR-T cell cocultures; conditions: 2nd generation CAR-T, MIPCEA cocultures; Ezh2 inhibitor 10 nm or nivolumab 20 μg/ml
Protocol: as §2
To produce second generation CEA-CAR T cells, T cells were modified by retroviral gene therapy to express a single chain antibody domain (sFv) that recognizes CEA tumor antigen. This anti-CEA binding domain is fused together with the full length sequence of CD28 co-stimulatory molecule and sequences of the signaling chain of the CD3 complex (signal 1+2) (FIG. 6A) (Nolan et al., 1999). The clinical grade CEA-CAR vector producing cells have been successfully tested in a number of in vitro studies as well as in a clinical setting to modify T cells for breast cancer clinical trials (Katz et al., 2015). […]
MIP101 and MIPCEA, tumor cell coculture with CEA-CAR modified T cells. […] Each time after the coculture, tumor cells were trypsinized (cellgro) and counted.

H3-K27 trimethylation = assay: Western blot for H3K27me3 in repeatedly stimulated T cells; conditions: inhibitor maintained in activation cultures; FIG. 2D
Protocol: as §1
(§3) For denaturing westerns, 20-40 μg of protein extracted from T cells was used. RIPA lysis buffer (Sigma, cat. R0278) was used to prepare whole cell extracts. For native gel analysis, cells were lysed in native lysis buffer (50 mM Tris-Cl, pH 8.0; 1% NP40; 150 mM NaCl, 100 μg leupeptin, 1 mM PMSF, 5 mM orthovanadate). For both native and denaturating conditions, samples were resolved on 4-15% TGX precast gels (Bio-Rad, cat. 456-1084) with the difference in running buffer. Native samples were run without SDS. […]

MIPCEA cells = conditions: by the 3rd co-culture; Ezh2 inhibitor 10 nm
Excerpt: To produce second generation CEA-CAR T cells, T cells were modified by retroviral gene therapy to express a single chain antibody domain (sFv) that recognizes CEA tumor antigen. This anti-CEA binding domain is fused together with the full length sequence of CD28 co-stimulatory molecule and sequences of the signaling chain of the CD3 complex (signal 1+2) (FIG. 6A) (Nolan et al., 1999). The clinical grade CEA-CAR vector producing cells have been successfully tested in a number of in vitro studies as well as in a clinical setting to modify T cells for breast cancer clinical trials (Katz et al., 2015). The first generation CEA-CAR contains anti-CEA binding domain fused with signaling chain (signal 1) (Nolan et al., 1999 Clin Cancer Res 5, 3928-3941). Transduction of T cells with anti CEA-CAR vector were as previously described (Beaudoin et al., 2008 Nat Med 9, 540-547).
MIP101 and MIPCEA, tumor cell coculture with CEA-CAR modified T cells. MIP101 is a CEA-undifferentiated human carcinoma cell line derived from liver metastases of colonic adenocarcinoma patients. The MIPCEA cell line was generated by stably expressing the full length CEA gene in MIP101 cells (Thomas et al., 1995 Cancer Lett 92, 59-66). […] Each time after the coculture, tumor cells were trypsinized (cellgro) and counted.

YY1 promoter = YY1 promoter luciferase reporter assay in restimulated T cells; conditions: after four stimulations, continued presence of inhibitor; FIG. 5C upper
Protocol: Human YY1 promoter luciferase construct YY1-pGLuc-basic was a kind gift from Dr. Guangchao Sui of Wake Forest Health Sciences, NC (Huang et al., 2012 Nucleic Acids Res 40, 1033-1049). The cJun/ATF2 octameric palindrome cyclic AMP-response element (CRE), 5′-[…]-3′(SEQ ID NO: 40), was mutated to 5′-cGgCaTaA-3′ (SEQ ID NO: 41) using the service of GenScript Inc. (Item cat. 426354-1).
The reporter assays and plasmid overexpression were performed in 6 well tissue culture plates. 5×10^6 T cells were transfected with plasmids using Amaxa human T cell nucleofector Kit, cat. VPA-1002 (Lonza). Transfections were performed using Amaxa nucleofector II device, program no. T-023/T-020. Luciferase assays were generally performed 48 hours after transfections. […] The YY1 promoter luciferase assay was measured from T cell culture supernatants using BioLux Gaussia lucferase assay kit (New England Biolabs, cat. no. E3300S). Amounts of transfected plasmids were kept proportionally constant. Samples were assayed for reporter activity using a Gloma 20/20 Luminometer (Promega), essentially using the recommended parameters provided by the reagent suppliers.
In experiments using p38MAPK, JNK, MEK1 and Ezh2 inhibitors, cells were grown in the continued presence of inhibitors. After each wash and activation step, cells were treated with a fresh batch of inhibitors. […]

[2] = system: phospho-ATF2, phospho-cJun and phospho-ERK; assay: Kinase activities by western blot (inhibitor specificity); conditions: respectively, westerns, FIG. 18A
Protocol: as §1, §3

YY1 = assay: Western blot of YY1 protein in T cells grown with kinase inhibitors; conditions: same cells as reporter assay; FIG. 5C lower
Protocol: as §1, §3

Compound | IL2 production of CAR-T cells on repeated exposure to tumor cells (CEA-CAR T cells) | YY1 luciferase reporter transcriptional activity (YY1 promoter) | specificity to block the downstream kinases [2] | further results
CCCc1cc(C)[nH]c(=O)c1CNC(=O)c1cc(-c2ccc(N3CCN(C(C)C)CC3)nc2)cc2c1cnn2C(C)C [Ezh2 inhibitor] | sustained IL2 |  |  | IL2 exceeding that of control T cells by a factor (CD4 T cells): > 40; IFNγ shutdown after repeated T cell stimulation (T cells): does not protect; H3-K27 trimethylation of the IL2 promoter by ChIP/qPCR [1]: suppressed; H3-K27 trimethylation by western (H3-K27 trimethylation): suppressed; net benefit in killing versus untreated CAR-T cells (MIPCEA cells): 5 fold
COc1cccc(-c2cc(=O)c3ccccc3o2)c1N [MEK1 inhibitor, PD98059] |  | no impact | confirmed | 
Oc1ccc(-c2nc(-c3ccncc3)c(-c3ccc(F)cc3)[nH]2)cc1 [p38MAPK inhibitor, SB202190] |  | suppressed | confirmed | YY1 protein by Western blot (YY1): suppressed
nivolumab | same IL2 loss as control T cells |  |  | 
